Assays:
[1] = target: GHS-R (Homo sapiens, UniProt Q92847); assay: cell based assay of GHS-R antagonist/agonist activity; design: key: A refers to a compound having antagonist activity with Ki<100 nM in a cell based assay; B refers to a compound having agonist activity with EC50<100 nM in a cell based assay; C refers to a compound having antagonist activity of Ki>100 nM and <1500 nM in a cell based assay; D refers to a compound having antagonist activity with Ki, <100 nM and agonist activity with EC50<100 nM in a cell-based assay; E refers to other exemplary compounds; details: GHS-R antagonist Ki and/or agonist EC50 class
Chain of GHS-R (Q92847 whole entry, species assumed): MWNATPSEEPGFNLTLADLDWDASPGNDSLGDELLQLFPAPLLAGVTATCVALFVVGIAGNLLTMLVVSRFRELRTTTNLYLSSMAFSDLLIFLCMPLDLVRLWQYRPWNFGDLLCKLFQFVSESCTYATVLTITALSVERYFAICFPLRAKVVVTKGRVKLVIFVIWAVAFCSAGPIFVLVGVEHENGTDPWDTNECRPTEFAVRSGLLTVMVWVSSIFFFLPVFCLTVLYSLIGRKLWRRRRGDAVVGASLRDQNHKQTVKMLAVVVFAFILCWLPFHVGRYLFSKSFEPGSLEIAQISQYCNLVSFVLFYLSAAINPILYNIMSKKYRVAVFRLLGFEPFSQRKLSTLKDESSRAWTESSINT
Procedure, shortened: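 COS-7 cells transfected with GHS-R, labelled with [3H]-myo-inositol, preincubated in 10 mM LiCl buffer pH 7.4, then given compound 45 min at 37 °C; [3H]-IP isolated by anion exchange. Alternatively, CREB-luciferase reporter in transfected HEK293 with 5 h compound exposure. IC50/EC50 by nonlinear regression.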

[2] = tested on: male C57BL/6J mice; assay: fast-refeed (refeeding) assay, food intake; assay type: in vivo
Experimental: Food is removed at 6 pm for an overnight (˜16 hour) fast. Beginning at 10 am on the next morning, mice are administered with either vehicle (e.g., saline+acetic acid, pH=5) or the compound of interest. Mice are then returned to their home cages and pre-weighed food (approximately 90 grams) is immediately returned to the food hoppers in each cage. The weight of the food remaining in the food hoppers is measured at 30 minutes, 1 hour, 2 hours, and 4 hours post compound/vehicle administration. Final body weights are then recorded for the mice.
Animals: For this particular experiment, male C57BL/6J mice (Vendor: Taconic; Age: 7 weeks; Weight Range: 19-25 g) were used. The animals were housed individually during acclimation to facility (3-5 days) and throughout the study. […]
• Mice were weighed and sorted into groups based on Body Weight. • Food was removed at 6 pm for an overnight (˜16 hour) fast. […] After injections mice were returned to their home cages. • Following each injection, pre-weighed food was immediately returned to the food hoppers. • Note: food was weighed the morning injections were administered. • Mouse weighed • Food weighed (approx. 90 g) • Mouse injected • Pre-weighed food returned to hopper • Food Weights were measured at 30 min, 1 hr, 2 hr, and 4 hrs post injection. • Final body weights were recorded and mice were euthanized via CO2 asphyxiation.

Compound	Activity [1]	feeding activity of mice in the fast refeed assay [2]
CN(C)C(C)(C)C(=O)N[C@H](COCc1ccccc1)C(=O)N1CCC2(CC1)CN(S(C)(=O)=O)c1ccccc12 [Compound 131]	B (B refers to a compound having agonist activity with EC50<100 nM in a cell based assay)	
CNC(C)(C)C(=O)N[C@H](COCc1ccccc1)C(=O)N1CCC2(CC1)CN(S(C)(=O)=O)c1ccccc12 [Compound 132]	B (B refers to a compound having agonist activity with EC50<100 nM in a cell based assay)	
CN1CCCC[C@@H]1C(=O)N[C@H](COCc1ccccc1)C(=O)N1CCC2(CC1)CN(S(C)(=O)=O)c1ccccc12.Cl [Compound 133]	B (B refers to a compound having agonist activity with EC50<100 nM in a cell based assay)	
CS(=O)(=O)N1CC2(CCN(C(=O)[C@@H](COCc3ccccc3)NC(=O)C3(N)CCCC3)CC2)c2ccccc21 [Compound 134]	B (B refers to a compound having agonist activity with EC50<100 nM in a cell based assay)	
CN1CCC(C(=O)N[C@H](Cc2c[nH]c3ccccc23)C(=O)N2CCC3(CC2)CN(S(C)(=O)=O)c2ccccc23)CC1 [Compound 135]	E	
CN1CCC(C(=O)N[C@H](CCc2ccccc2)C(=O)N2CCC3(CC2)CN(S(C)(=O)=O)c2ccccc23)CC1 [Compound 136]	E	
C[C@@H](OCc1ccccc1)C(NC(=O)C1CCN(C)CC1)C(=O)N1CCC2(CC1)CN(S(C)(=O)=O)c1ccccc12 (some centres unmarked) [Compound 137]	E	
CN1CCC(C(=O)NC(Cc2ccc3ccccc3c2)C(=O)N2CCC3(CC2)CN(S(C)(=O)=O)c2ccccc23)CC1 (centres unmarked) [Compound 138]	E	
CN1CCC(NC(=O)N2C[C@H](OCc3ccccc3)CC2C(=O)N2CCC3(CC2)CN(S(C)(=O)=O)c2ccccc23)CC1 (some centres unmarked) [Compound 139]	E	
Cc1ccc(CSC[C@H](NC(=O)C2CCN(C)CC2)C(=O)N2CCC3(CC2)CN(S(C)(=O)=O)c2ccccc23)cc1 [Compound 140]	E	
CN1CCC(C(=O)N[C@H](CC(=O)N2CCC3(CC2)CN(S(C)(=O)=O)c2ccccc23)Cc2c[nH]c3ccccc23)CC1 [Compound 141]	E	
CC(OCc1ccccc1)[C@@H](CC(=O)N1CCC2(CC1)CN(S(C)(=O)=O)c1ccccc12)NC(=O)C1CCN(C)CC1 (some centres unmarked) [Compound 142]	E	
CN1CCC(S(=O)(=O)N[C@H](COCc2ccccc2)C(=O)N2CCC3(CC2)CN(S(C)(=O)=O)c2ccccc23)CC1 [Compound 143]	A (A refers to a compound having antagonist activity with Ki<100 nM in a cell based assay)	
CS(=O)(=O)N1CC2(CCN(C(=O)[C@@H](COCc3ccccc3)NS(=O)(=O)CCN3CCOCC3)CC2)c2ccccc21 [Compound 144]	E	
CC(C)(C)NCCS(=O)(=O)N[C@H](COCc1ccccc1)C(=O)N1CCC2(CC1)CN(S(C)(=O)=O)c1ccccc12 [Compound 145]	E	
CC(C)NCCS(=O)(=O)N[C@H](COCc1ccccc1)C(=O)N1CCC2(CC1)CN(S(C)(=O)=O)c1ccccc12 [Compound 146]	C (C refers to a compound having antagonist activity of Ki>100 nM and <1500 nM in a cell based assay)	
C=CS(=O)(=O)N[C@H](COCc1ccccc1)C(=O)N1CCC2(CC1)CN(S(C)(=O)=O)c1ccccc12 [Compound 147]	E	
CC(C)NCCCS(=O)(=O)N[C@H](COCc1ccccc1)C(=O)N1CCC2(CC1)CN(S(C)(=O)=O)c1ccccc12 [Compound 148]	A (A refers to a compound having antagonist activity with Ki<100 nM in a cell based assay)	

Compound	Activity [1]	feeding activity of mice in the fast refeed assay [2]
CS(=O)(=O)N1CC2(CCN(C(=O)[C@@H](COCc3ccccc3)NS(=O)(=O)CCCN3CCOCC3)CC2)c2ccccc21 [Compound 149]	E	
CC(C)(C)NCCCS(=O)(=O)N[C@H](COCc1ccccc1)C(=O)N1CCC2(CC1)CN(S(C)(=O)=O)c1ccccc12 [Compound 150]	A (A refers to a compound having antagonist activity with Ki<100 nM in a cell based assay)	
CS(=O)(=O)N1CC2(CCN(C(=O)[C@@H](COCc3ccccc3)NS(=O)(=O)CCN3C4CCCC3CC4)CC2)c2ccccc21 [Compound 151]	C (C refers to a compound having antagonist activity of Ki>100 nM and <1500 nM in a cell based assay)	
CN1C2CCC1CC(S(=O)(=O)N[C@H](COCc1ccccc1)C(=O)N1CCC3(CC1)CN(S(C)(=O)=O)c1ccccc13)C2 (some centres unmarked) [Compound 152]	C (C refers to a compound having antagonist activity of Ki>100 nM and <1500 nM in a cell based assay)	
CS(=O)(=O)N1CC2(CCN(C(=O)[C@@H](COCc3ccccc3)NS(=O)(=O)CCCCl)CC2)c2ccccc21 [Compound 153]	A (A refers to a compound having antagonist activity with Ki<100 nM in a cell based assay)	
CN1CCC(S(=O)(=O)N[C@H](COCc2ccccc2)C(=O)N2CCC3(C=Cc4ccccc43)CC2)CC1 [Compound 154]	C (C refers to a compound having antagonist activity of Ki>100 nM and <1500 nM in a cell based assay)	
CCN(CC)CCCS(=O)(=O)N[C@H](COCc1ccccc1)C(=O)N1CCC2(CC1)CN(S(C)(=O)=O)c1ccccc12 [Compound 155]	A (A refers to a compound having antagonist activity with Ki<100 nM in a cell based assay)	
CN(C)CCCS(=O)(=O)N[C@H](COCc1ccccc1)C(=O)N1CCC2(CC1)CN(S(C)(=O)=O)c1ccccc12 [Compound 156]	E	
CS(=O)(=O)N1CC2(CCN(C(=O)[C@@H](COCc3ccccc3)NS(=O)(=O)CCCNC3CC3)CC2)c2ccccc21 [Compound 157]	E	
CS(=O)(=O)N1CC2(CCN(C(=O)[C@@H](COCc3ccccc3)N3CCCS3(=O)=O)CC2)c2ccccc21 [Compound 158]	E	
CS(=O)(=O)N1CC2(CCN(C(=O)[C@@H](COCc3ccccc3)NS(=O)(=O)CCCN3CCCC3)CC2)c2ccccc21 [Compound 159]	A (A refers to a compound having antagonist activity with Ki<100 nM in a cell based assay)	
CN([C@H](COCc1ccccc1)C(=O)N1CCC2(CC1)CN(S(C)(=O)=O)c1ccccc12)S(=O)(=O)CCCCl [Compound 160]	E	
COCCCS(=O)(=O)N[C@H](COCc1ccccc1)C(=O)N1CCC2(CC1)CN(S(C)(=O)=O)c1ccccc12 [Compound 161]	E	
CCN(CC)CCCS(=O)(=O)N(C)[C@H](COCc1ccccc1)C(=O)N1CCC2(CC1)CN(S(C)(=O)=O)c1ccccc12 [Compound 162]	A (A refers to a compound having antagonist activity with Ki<100 nM in a cell based assay)	
CCN(CC)CCCS(=O)(=O)N[C@H](CCc1ccccc1)C(=O)N1CCC2(CC1)CN(S(C)(=O)=O)c1ccccc12 [Compound 163]	A (A refers to a compound having antagonist activity with Ki<100 nM in a cell based assay)	
CCN(CC)CCCS(=O)(=O)N[C@H](COCc1ccccc1)C(=O)N1CCC2(C=Cc3ccccc32)CC1 [Compound 164]	A (A refers to a compound having antagonist activity with Ki<100 nM in a cell based assay)	
substance P		alters feeding activity
